Patent US6110962A, “11-aryl-benzo[B]naphtho[2,3-D]furans and 11-aryl-benzo[B]naphtho[2,3-D]thiophenes useful in the treatment of insulin resistance and hyperglycemia” (American Home Products Corporation, priority 1999, dated 2000)
Like-named read-outs stand apart in the source and are kept apart here.

Columns and labels:
diabetic (ob/ob) mice = assay: Blood glucose lowering activity in diabetic (ob/ob) mice; format: in vivo, mouse
Experimental: The blood glucose lowering activity of representative compounds of this invention were determined in an in vivo standard procedure using diabetic (ob/ob) mice. The procedures used and results obtained are briefly described below. The non-insulin dependent diabetic (NIDDM) syndrome can be typically characterizes by obesity, hyperglycemia, abnormal insulin secretion, hyperinsulinemia and insulin resistance. […] In each test procedure, mice [Male or female ob/ob (C57 B1/6J) and their lean litermates (ob+ or +/+, Jackson Laboratories) ages 2 to 5 months (10 to 65 g)] of a similar age were randomized according to body weight into 4 groups of 10 mice. The mice were housed 5 per cage and are maintained on normal rodent chow with water ad libitum. Mice received test compound daily by gavage (suspended in 0.5 ml of 0.5% methyl cellulose); dissolved in the drinking water; or admixed in the diet. […] The dose is calculated based on the fed weekly body weight and is expressed as active moiety. […] Control mice received vehicle only. On the morning of Day 4, 7 or 14 two drops of blood (approximetly 50 ul) were collected into sodium fluoride containing tubes either from the tail vein or after decapitation. For those studies in which the compound was administered daily by gavage the blood samples were collected two hours after compound administration. The plasma was isolated by centrifugation and the concentration of glucose is measured enzymatically on an Abbott V. P. Analyzer. […] Analysis of variance followed by Dunett's Comparison Test (one-tailed) are used to estimate the significant difference between the plasma glucose values from the control group and the individual compound treated groups (CMS SAS Release 5.18).

[1] = test system: rat hepatic microsomal PTPases; conditions: PTPase activity, compound at 50 μM
Human recombinant PTP1B = molecular target: T1, Human recombinant PTP1B (Homo sapiens, UniProt P18031); format: biochemical
T1 construct: made in house
T1 sequence (P18031 1-435): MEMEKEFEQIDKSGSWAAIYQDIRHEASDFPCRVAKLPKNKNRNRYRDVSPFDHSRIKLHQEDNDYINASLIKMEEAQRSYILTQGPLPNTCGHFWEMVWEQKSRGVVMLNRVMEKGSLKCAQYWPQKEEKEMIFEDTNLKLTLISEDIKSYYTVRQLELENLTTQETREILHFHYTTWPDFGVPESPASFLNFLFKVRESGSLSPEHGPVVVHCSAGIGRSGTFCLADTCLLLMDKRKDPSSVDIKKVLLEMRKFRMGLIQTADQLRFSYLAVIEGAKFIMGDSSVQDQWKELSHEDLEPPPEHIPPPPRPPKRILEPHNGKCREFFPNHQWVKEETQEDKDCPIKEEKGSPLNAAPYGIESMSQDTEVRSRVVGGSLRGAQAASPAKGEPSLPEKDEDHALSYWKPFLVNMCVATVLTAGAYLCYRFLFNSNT

[2] = Mus musculus, po, 96 h, ob/ob mice, plasma glucose Day 4, 7 or 14, read-out: % Change Glucose from Vehicle
[3] = Mus musculus, po, ob/ob mice, read-out: % Change Insulin from Vehicle

Row | % Change from Control [1] | IC50 (Human recombinant PTP1B; read-out: IC50) | SMILES | other results
1 | – | – | O=C(O)COc1c(-c2ccccc2)cc(-c2c3ccccc3cc3sc4ccccc4c23)cc1-c1ccccc1 [Example 191] | change in vivo at 10 mg/kg (diabetic (ob/ob) mice; Mus musculus, po, 96 h, ob/ob mice, dose 10 mg/Kg, plasma glucose Day 4, 7 or 14, read-out: % Change Glucose from Vehicle): -22.8%; change in vivo at 25 mg/kg (diabetic (ob/ob) mice; [2]): -36.5%; change in vivo at 25 mg/kg (diabetic (ob/ob) mice; [3]): -64.3%
2 | -87.44% | 82 nM | CCCCC(Oc1c(Br)cc(-c2c3ccccc3c(Br)c3sc4ccccc4c23)cc1Br)C(=O)O (stereo not shown) [Example 123, 2-[2,6-Dibromo-4-(6-bromo-benzo[b]naphtho[2,3-d]thiophen-11-yl)-phenoxy]-hexanoic acid] | change in vivo at 75 mg/kg (diabetic (ob/ob) mice; [2]): -24%; change in vivo at 75 mg/kg (diabetic (ob/ob) mice; [3]): -40.9%
3 | -66.21% | – | O=C(O)[C@@H](Cc1ccccc1)Oc1c(I)cc(-c2c3ccccc3cc3sc4ccccc4c23)cc1I [Example 131] | change in vivo at 25 mg/kg (diabetic (ob/ob) mice; [2]): -3.63%; change in vivo at 25 mg/kg (diabetic (ob/ob) mice; [3]): -67.5%
4 | -73.96% | – | O=C(O)[C@@H](Cc1ccccc1)Oc1c(Br)cc(-c2c3ccccc3c(C(F)(F)F)c3sc4ccccc4c23)cc1Br [Example 125, (R)-2-[2,6-Dibromo-4-(6-trifluoromethyl-benzo[b]naphtho[2,3-d]thiophen-11-yl)-phenoxy]-3-phenyl-propionic acid] | change in vivo at 95 mg/kg (diabetic (ob/ob) mice; [2]): -27.6%; change in vivo at 95 mg/kg (diabetic (ob/ob) mice; [3]): -89.7%
5 | – | – | CC1(COc2ccc(CC3SC(=O)NC3=O)cc2)CCCCC1 (stereo not shown) [Ciglitazone, 5-(4-(1-methylcyclohexylmethoxy)benzyl)-2,4-dione, reference compound] | change in vivo at 100 mg/kg (diabetic (ob/ob) mice; [2]): -43%; change in vivo at 100 mg/kg (diabetic (ob/ob) mice; [3]): -39%; lowering in plasma glucose (in words) (diabetic (ob/ob) mice; positive control, 100 mg/kg/day): significant lowering in plasma glucose
6 | -71.19% | 204 nM | CC(C)c1cc(-c2c3ccccc3c(Br)c3sc4ccccc4c23)cc(C(C)C)c1O[C@H](C)C(=O)O [Example 140, (R)-2-[4-(6-Bromo-benzo[b]naphtho[2,3-d]thiophen-11-yl)-2,6-diisopropyl-phenoxy)-propionic acid] | –
7 | -40.14% | 654 nM | Cc1c2ccccc2c(-c2cc(Br)c(O)c(Br)c2)c2c1sc1ccccc12 [Example 62, 2,6-Dibromo-4-(6-methyl-benzo[b]naphtho[2,3-d]thiophen-11-yl)-phenol] | –
8 | -26.86% | 565 nM | NC(=O)[C@@H](Cc1ccccc1)Oc1c(Br)cc(-c2c3ccccc3c(Br)c3sc4ccccc4c23)cc1Br [Example 166] | –
9 | -70.01% | 85 nM | O=C(O)[C@@H](CCN1Cc2ccccc2C1=O)Oc1c(Br)cc(-c2c3ccccc3c(Br)c3sc4ccccc4c23)cc1Br [Example 124, (2R)-2-[2,6-Dibromo-4-(6-bromo-benzo[b]naphtho[2,3-d]thiophen-11-yl)-phenoxy]-4-(1-oxo-1,3-dihydro-isoindol-2-yl)-butyric acid] | –
10 | -1.40% | 1100 nM | CC(C)c1cc(-c2c3ccccc3c(Br)c3sc4ccccc4c23)cc(C(C)C)c1O [Example 40, 4-(6-Bromo-benzo[b]naphtho[2,3-d]thiophen-11-yl)-2,6-diisopropyl-phenol] | –
11 | -92.46% | 207 nM | O=C(O)[C@@H](CCN1C(=O)c2ccccc2C1=O)Oc1ccc(-c2c3ccccc3c(Br)c3sc4ccccc4c23)cc1 [Example 150] | –
12 | -35.74% | 79 nM | Oc1cc(Br)c(-c2c3ccccc3c(Br)c3sc4ccccc4c23)cc1O [Example 71, 4-Bromo-5-(6-bromo-benzo[b]naphtho[2,3-d]thiophen-11-yl)-benzene-1,2-diol] | –
13 | -80.08% | 174 nM | COc1c(Br)cc(-c2c3ccccc3c(Br)c3sc4ccccc4c23)cc1O[C@H](Cc1ccccc1)C(=O)O [Example 196, (R)-2-[3-Bromo-5-(6-bromo-benzo[b]naphtho[2,3-d]thiophen-11-yl)-2-methoxy-phenoxy]-3-phenyl-propionic acid] | –
14 | -85.24% | 1130 nM | C[C@@H](Oc1cc(-c2c3ccccc3c(Br)c3sc4ccccc4c23)ccc1Br)C(=O)O [Example 144, (R)-2-[2-bromo-5-(6-Bromo-benzo[b]naphtho[2,3-d]thiophen-11-yl)-phenoxyl]-propionic acid] | –
15 | -18.79% | 607 nM | N#C[C@@H](Cc1ccccc1)Oc1c(Br)cc(-c2c3ccccc3c(Br)c3sc4ccccc4c23)cc1Br [Example 170, (R)-2-[2,6-Dibromo-4-(6-bromo-benzo[b]naphtho[2,3-d]thiophen-11-yl)-phenoxy]-3-phenyl-propionitrile] | –
16 | -71.12% | 26 nM | O=C(O)C(Cc1ccc2ccccc2c1)Oc1c(Br)cc(-c2c3ccccc3c(Br)c3sc4ccccc4c23)cc1Br (stereo not shown) [Example 156, 2-[2,6-Dibromo-4-(6-bromo-benzo[b]naphtho[2,3-d]thiophen-11-yl)-phenoxy]-3-naphthalen-2yl-propionic acid] | –
17 | -17.85% | 994 nM | N#CCCNC(=O)[C@@H](Cc1ccccc1)Oc1c(Br)cc(-c2c3ccccc3c(Br)c3sc4ccccc4c23)cc1Br [Example 168] | –
18 | -76.58% | 126 nM | Cc1c2ccccc2c(-c2cc(Br)c(O[C@H](Cc3ccccc3)C(=O)O)c(Br)c2)c2c1sc1ccccc12 [Example 141] | –
19 | -42.41% | 480 nM | CC(C)(Oc1c(Br)cc(-c2c3ccccc3c(Br)c3sc4ccccc4c23)cc1Br)C(=O)O [Example 178, 2-[2,6-Dibromo-4-(6-bromo-benzo[b]naphtho[2,3-d]thiophen-11-yl)-phenoxy]-2-methyl-propionic acid] | –
20 | -68.03% | 589 nM | O=C(O)[C@H](Cc1ccccc1)Oc1ccc(-c2c3ccccc3c(Br)c3sc4ccccc4c23)cc1 [Example 114, (S)-2-[4-(6-bromo-benzo[b]naphtho[2,3-d]thiophen-11-yl)-phenoxy]-3-phenyl-propionic acid] | –
21 | -14.62% | 189 nM | Oc1ccc(-c2c3ccccc3c(Br)c3sc4ccccc4c23)cc1O [Example 43, 4-(6-bromo-benzo[b]naphtho[2,3-d]thiophen-11-yl)-benzene-1,2-diol] | –
22 | -21.28% | 1500 nM | Oc1cccc(-c2c3ccccc3c(Br)c3sc4ccccc4c23)c1 [Example 42, 3-(6-Bromo-benzo[b]naphtho[2,3-d]thiophen-11-yl)-phenol] | –
23 | -47.69% | 1990 nM | N#Cc1cc(-c2c3ccccc3cc3sc4ccccc4c23)cc(C#N)c1OCC(=O)O [Example 81, [(4-Benzo[b]naphtho[2,3-d]thiophen-11-yl)-2,6-dicyano-phenoxy]-acetic acid] | –
24 | -35.46% | 612 nM | Oc1c(Br)cc(-c2c3ccccc3c(I)c3sc4ccccc4c23)cc1Br [Example 59, 2,6-Dibromo-4-(6-iodo-benzo[b]naphtho[2,3-d]thiophen-11-yl)-phenol] | –
25 | -64.92% | 341 nM | O=C(O)C(Cc1cccnc1)Oc1c(Br)cc(-c2c3ccccc3c(Br)c3sc4ccccc4c23)cc1Br (stereo not shown) [Example 137, 2-[2,6-Dibromo-4-(6-bromo-benzo[b]naphtho[2,3-d]thiophen-11-yl)-phenoxy]-3-pyridin-3-yl-propionic acid] | –

Row | SMILES | % Change from Control [1] | IC50 (Human recombinant PTP1B; read-out: IC50) | other results
26 | O=P(O)(O)Oc1c(Br)cc(-c2c3ccccc3c(Br)c3sc4ccccc4c23)cc1Br [Example 177, Phosphoric acid Mono-[2,6-dibromo-4-(6-bromo-benzo[b]naphtho[2,3-d]thiophen-11-yl)-phenyl]ester] | -69.35% | – | IC50 (Human recombinant PTP1B): 1080 nM
